# In patent US6344351B2, “(R)-transaminase from arthrobacter” (Kaneka Corporation, priority 1995, dated 2002):
# Tested on: (R)-form-specific transaminase of Arthrobacter sp. KNK168
# Assay: Reactivity of purified enzyme to carbonyl compounds, (R)-1-phenylethylamine as amino donor
# Format: biochemical
# Settings: (R)-1-phenylethylamine as amino donor
# Method: Using the purified enzyme obtained in Example 9, reactivities to various carbonyl compounds using (R)-1-phenylethylamine as an amino donor were evaluated. 50 μl of a solution of the purified enzyme was added to 200 μl of a substrate solution (0.1 M Tris-HCl buffer (pH 8.5), 25 mM (R)-1-phenylethylamine, 0.1 mM pyridoxal phosphate, and 25 mM various carbonyl compounds), and the components were reacted at 30° C. for 1 to 3 hours. The reaction tube was transferred into boiling water to stop the reaction, and, thereafter, the reaction mixture was diluted five-folds with methanol. This diluted solution was analyzed by high-performance liquid chromatography using fine pack C18-5 column and using methanol/water (20:80) as an eluent solution to quantitatively analyze acetophenone formed by the reaction.
row,Compound,reactivity of carbonyl compound
1,O=C(O)CC(=O)C(=O)O [Oxalacetic acid],favorable reactivities
2,CC(=O)COc1ccccc1 [Phenoxy-2-propanone],favorable reactivities

# Same assay, conditions: purified enzyme; 25 mM carbonyl compound, 25 mM (R)-1-phenylethylamine, pH 8.5, 30° C., 1 to 3 hours; pyruvic acid = 100
row,Compound,Relative Activity (%) of carbonyl compounds
1,CCC(=O)C(=O)O [2-Ketobutyric acid],7%
2,2-Decane,3%
3,CC(=O)c1cccnc1 [3-Acetylpyridine],8%
4,O=CCc1ccccc1 [Phenyl acetaldehyde],13%
5,CC(=O)C(C)=O [Diacetyl],10%
6,O=CC(=O)O [Glyoxylic acid],4%
7,CC(=O)c1cccs1 [2-Acetylthiophene],1%
8,CC(=O)c1cnccn1 [2-Acetylpyrazine],17%
9,CC(=O)C(=O)O [Pyruvic acid],100%
10,CCOC(=O)C(C)=O [Ethyl pyruvate],27%
11,O=C(O)CC(=O)C(=O)O [Oxalacetic acid],87%
12,CC(=O)CCc1ccccc1 [Benzyl acetone],3%
13,CC(=O)Oc1cccnc1 [3-Acetoxypyridine],1%
14,CC(=O)c1ccncc1 [4-Acetylpyridine],27%
15,CC(=O)c1nccs1 [2-Acetylthiazole],10%
16,COCC(C)=O [1-Methoxy-2-propanone],16%
17,CC(=O)c1ccco1 [2-Acetylfuran],2%
18,CCC(=O)Cc1ccccc1 [1-Phenyl-2-butanone],1%
19,CCOC(=O)CC(C)=O [Ethyl acetoacetate],4%
20,O=C1CCCc2ccccc21 [1-Tetralone],1%
21,CCOC(=O)CC(=O)c1ccccc1 [Ethyl benzoyl acetate],2%
22,CC(=O)COc1ccccc1 [Phenoxy-2-propanone],83%
23,"COc1ccc(CC(C)=O)cc1OC [1-(3,4-Dimethoxyphenyl)-2-propanone]",7%
24,CC(=O)c1ccccn1 [2-Acetylpyridine],19%
25,COc1ccc(CCC(C)=O)cc1 [4-(4-Methoxyphenyl)-2-butanone],7%
